Positions of bridges follow the written chain, without caps; N, C: chain ends. Non-standard residues stand in square brackets, D forms with d. Residues, ends and D or L forms follow the SMILES beside them. Bip(4'-COOH) = N[C@@H](Cc1ccc(-c2ccc(C(=O)O)cc2)cc1)C(=O)O; Bip(4'-NHAc) = CC(=O)Nc1ccc(-c2ccc(C[C@H](N)C(=O)O)cc2)cc1; Ala(morpholin-4-yl) = N[C@@H](CN1CCOCC1)C(=O)O; Bip = N[C@@H](Cc1ccc(-c2ccccc2)cc1)C(=O)O; 2Pal = N[C@@H](Cc1ccccn1)C(=O)O; Chg = N[C@H](C(=O)O)C1CCCCC1; Aze = O=C(O)[C@@H]1CCN1; Sar = CNCC(=O)O
Biological target: TNFα (Homo sapiens, UniProt P01375)
Sequence (P01375 77-233 limits assumed): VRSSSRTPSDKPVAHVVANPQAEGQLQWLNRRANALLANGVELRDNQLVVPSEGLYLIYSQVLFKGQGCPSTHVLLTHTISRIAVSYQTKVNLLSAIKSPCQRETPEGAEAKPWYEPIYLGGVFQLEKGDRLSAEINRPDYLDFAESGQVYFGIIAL
Assay: TNF-Induced HEK-Blue Assay
Type: cell-based
Conditions: HEK-Blue-CD40L cells, NF-kB-driven secreted alkaline phosphatase reporter; TNFα 0.5 ng/ml; 18 h; read-out: TNF induced HEK-Blue assay IC50 value

`CC(C)C[C@@H]1NC(=O)[C@H](CCCNC(=N)N)NC(=O)[C@H](C2CCCCC2)NC(=O)[C@@H]2CCCN2C(=O)[C@H](C(C)C)NC(=O)[C@@H](CCCNC(=N)N)NC(=O)[C@H](CC(=O)O)NC(=O)[C@@H]2CCCN2C(=O)CN(C)C(=O)[C@H](Cc2ccc(-c3ccccc3)cc2)NC(=O)[C@H](Cc2ccc(-c3ccccc3)cc2)NC(=O)[C@H](CN2CCOCC2)NC(=O)CSC[C@@H](C(=O)NCC(N)=O)NC1=O` [Example 206] ({CH2CO}-[Ala(morpholin-4-yl)][Bip][Bip][Sar]PD[dR]VP[Chg]RLCG-NH2; thioether N-13) was tested, and the IC50 was < 50 nM.

With `CC(C)C[C@@H]1NC(=O)[C@H](CCCNC(=N)N)NC(=O)[C@H](C2CCCCC2)NC(=O)[C@@H]2CCCN2C(=O)[C@H](C(C)C)NC(=O)[C@H](CCCNC(=N)N)NC(=O)[C@H](CC(=O)O)NC(=O)[C@@H]2CCCN2C(=O)CN(C)C(=O)[C@H](Cc2ccc(-c3ccccc3)cc2)NC(=O)[C@H](Cc2ccc(-c3ccccc3)cc2)NC(=O)[C@H](CN2CCOCC2)NC(=O)CSC[C@@H](C(=O)NCC(N)=O)NC1=O` [Example 207] ({CH2CO}-[Ala(morpholin-4-yl)][Bip][Bip][Sar]PDRVP[Chg]RLCG-NH2; thioether N-13) the IC50 was 200 to 2000 nM.

Molecule `CC(=O)Nc1ccc(-c2ccc(C[C@@H]3NC(=O)[C@H](Cc4ccc(-c5ccccc5)cc4)NC(=O)[C@H](CN4CCOCC4)NC(=O)CSC[C@@H](C(=O)NCC(N)=O)NC(=O)[C@H](CC(C)C)NC(=O)[C@H](Cc4ccc(O)cc4)NC(=O)[C@H](C(C)C)NC(=O)[C@@H]4CCCN4C(=O)[C@H](C(C)C)NC(=O)[C@H](CCCNC(=N)N)NC(=O)[C@H](CC(=O)O)NC(=O)[C@H](Cc4ccccn4)NC(=O)CN(C)C3=O)cc2)cc1` [Example 208] ({CH2CO}-[Ala(morpholin-4-yl)][Bip][Bip(4'-NHAc)][Sar][2Pal]DRVPVYLCG-NH2; thioether N-13) has an IC50 of 50 to 200 nM.

`CC(C)C[C@@H]1NC(=O)[C@H](Cc2ccc(O)cc2)NC(=O)[C@H](C2CCCCC2)NC(=O)[C@@H]2CCCN2C(=O)[C@H](C(C)C)NC(=O)[C@@H](CCCNC(=N)N)NC(=O)[C@H](CC(=O)O)NC(=O)[C@@H]2CCCN2C(=O)CN(C)C(=O)[C@H](Cc2ccc(-c3ccccc3)cc2)NC(=O)[C@H](Cc2ccc(-c3ccccc3)cc2)NC(=O)[C@H](CN2CCOCC2)NC(=O)CSC[C@@H](C(=O)NCC(N)=O)NC1=O` [Example 209] ({CH2CO}-[Ala(morpholin-4-yl)][Bip][Bip][Sar]PD[dR]VP[Chg]YLCG-NH2; thioether N-13) gave an IC50 of 200 to 2000 nM.

In the case of `CC(=O)Nc1ccc(-c2ccc(C[C@@H]3NC(=O)[C@H](Cc4ccc(-c5ccccc5)cc4)NC(=O)[C@H](CN4CCOCC4)NC(=O)CSC[C@@H](C(=O)NCC(N)=O)NC(=O)[C@H](CC(C)C)NC(=O)[C@H](Cc4ccc(O)cc4)NC(=O)[C@H](C4CCCCC4)NC(=O)[C@@H]4CCCN4C(=O)[C@H](C(C)C)NC(=O)[C@H](CCCNC(=N)N)NC(=O)[C@H](CC(=O)O)NC(=O)[C@@H]4CCCN4C(=O)CN(C)C3=O)cc2)cc1` [Example 210] ({CH2CO}-[Ala(morpholin-4-yl)][Bip][Bip(4'-NHAc)][Sar]PDRVP[Chg]YLCG-NH2; thioether N-13), the IC50 is reported as < 50 nM.

For `CC(=O)Nc1ccc(-c2ccc(C[C@@H]3NC(=O)[C@H](Cc4ccc(-c5ccccc5)cc4)NC(=O)[C@H](CN4CCOCC4)NC(=O)CSC[C@@H](C(=O)NCC(N)=O)NC(=O)[C@H](CC(C)C)NC(=O)[C@H](Cc4cnc[nH]4)NC(=O)[C@H](C(C)C)NC(=O)[C@@H]4CCCN4C(=O)[C@H](C(C)C)NC(=O)[C@@H](CCCNC(=N)N)NC(=O)[C@H](CC(=O)O)NC(=O)[C@H](Cc4cnc[nH]4)NC(=O)CN(C)C3=O)cc2)cc1` [Example 211] ({CH2CO}-[Ala(morpholin-4-yl)][Bip][Bip(4'-NHAc)][Sar]HD[dR]VPVHLCG-NH2; thioether N-13), the IC50 was 200 to 2000 nM.

With `CC(=O)Nc1ccc(-c2ccc(C[C@@H]3NC(=O)[C@H](Cc4ccc(-c5ccccc5)cc4)NC(=O)[C@H](CN4CCOCC4)NC(=O)CSC[C@@H](C(=O)NCC(N)=O)NC(=O)[C@H](CC(C)C)NC(=O)[C@H](CCCNC(=N)N)NC(=O)[C@H](C(C)C)NC(=O)[C@@H]4CCCN4C(=O)[C@H](C(C)C)NC(=O)[C@@H](CCCNC(=N)N)NC(=O)[C@H](CC(=O)O)NC(=O)[C@H](Cc4cnc[nH]4)NC(=O)CN(C)C3=O)cc2)cc1` [Example 212] ({CH2CO}-[Ala(morpholin-4-yl)][Bip][Bip(4'-NHAc)][Sar]HD[dR]VPVRLCG-NH2; thioether N-13) the IC50 was < 50 nM.

With `CC(=O)Nc1ccc(-c2ccc(C[C@@H]3NC(=O)[C@H](Cc4ccc(-c5ccccc5)cc4)NC(=O)[C@H](CN4CCOCC4)NC(=O)CSC[C@@H](C(=O)NCC(N)=O)NC(=O)[C@H](CC(C)C)NC(=O)[C@H](Cc4cnc[nH]4)NC(=O)[C@H](C(C)C)NC(=O)[C@@H]4CCCN4C(=O)[C@H](C(C)C)NC(=O)[C@@H](CCCNC(=N)N)NC(=O)[C@H](CC(=O)O)NC(=O)[C@H](Cc4ccc(O)cc4)NC(=O)CN(C)C3=O)cc2)cc1` [Example 213] ({CH2CO}-[Ala(morpholin-4-yl)][Bip][Bip(4'-NHAc)][Sar]YD[dR]VPVHLCG-NH2; thioether N-13) the IC50 was < 50 nM.

Work on `CC(C)C[C@@H]1NC(=O)[C@H](Cc2ccccc2)NC(=O)[C@H](C(C)C)NC(=O)[C@@H]2CCCN2C(=O)[C@H](C(C)C)NC(=O)[C@@H](CCCNC(=N)N)NC(=O)[C@H](CC(=O)O)NC(=O)[C@H](Cc2ccccc2)NC(=O)CN(C)C(=O)[C@H](Cc2ccc(-c3ccccc3)cc2)NC(=O)[C@H](Cc2ccc(-c3ccc(C(=O)O)cc3)cc2)NC(=O)[C@H](CN2CCOCC2)NC(=O)CSC[C@@H](C(=O)NCC(N)=O)NC1=O` [Example 216] ({CH2CO}-[Ala(morpholin-4-yl)][Bip(4'-COOH)][Bip][Sar]FD[dR]VPVFLCG-NH2; thioether N-13) yielded an IC50 of 200 to 2000 nM.

With `CC(=O)Nc1ccc(-c2ccc(C[C@@H]3NC(=O)[C@H](Cc4ccc(-c5ccccc5)cc4)NC(=O)[C@H](CN4CCOCC4)NC(=O)CSC[C@@H](C(=O)NCC(N)=O)NC(=O)[C@H](CC(C)C)NC(=O)[C@H](Cc4ccccc4)NC(=O)[C@H](C(C)C)NC(=O)[C@@H]4CCN4C(=O)[C@H](C(C)C)NC(=O)[C@@H](CCCNC(=N)N)NC(=O)[C@H](CC(=O)O)NC(=O)[C@H](Cc4ccccc4)NC(=O)CN(C)C3=O)cc2)cc1` [Example 217] ({CH2CO}-[Ala(morpholin-4-yl)][Bip][Bip(4'-NHAc)][Sar]FD[dR]V[Aze]VFLCG-NH2; thioether N-13) the IC50 was 50 to 200 nM.

`CC(=O)Nc1ccc(-c2ccc(C[C@@H]3NC(=O)[C@H](Cc4ccc(-c5ccccc5)cc4)NC(=O)[C@H](CN4CCOCC4)NC(=O)CSC[C@@H](C(=O)NCC(N)=O)NC(=O)[C@H](CC(C)C)NC(=O)[C@H](CCCNC(=N)N)NC(=O)[C@H](C4CCCCC4)NC(=O)[C@@H]4CCCN4C(=O)[C@H](CC(N)=O)NC(=O)[C@@H](CCCNC(=N)N)NC(=O)[C@H](CC(=O)O)NC(=O)[C@H](Cc4ccccn4)NC(=O)CN(C)C3=O)cc2)cc1` [Example 218] ({CH2CO}-[Ala(morpholin-4-yl)][Bip][Bip(4'-NHAc)][Sar][2Pal]D[dR]NP[Chg]RLCG-NH2; thioether N-13) was tested, and the IC50 was 50 to 200 nM.

— patent US20250145665A1, “MACROCYCLIC PEPTIDES USEFUL AS MODULATORS OF TNF ALPHA” (Bristol-Myers Squibb Company, priority 2023, published 2025)
